In patent publication US8329726B2, “Inhibitors of VEGF receptor and HGF receptor signaling” (MethylGene Inc., priority 2005, dated 2012):
pIC50: −log10 of the molar value.

Columns and labels:
DU145 = DU145 scattering inhibition (HGF dependent scattering); format: cell-based; details: Homo sapiens, DU-145; HGF dependent scattering, DU145 cells; read-out: DU145 SCATTERING INHIB IC50
From the text: (§1) HGF has well known activity in terms of inducing scattering and migration (wound healing) (Wells et al., Cell Motil Cytoskeleton. 2005 November 62(3):180-94; Miura et al., Urology 2001 December 58(6):1064-9; Nishimura et al., Int J Urol. 1998 May 5(3):276-81; Wang et al., Mol Cancer Ther. 2003 November; 2(11):1085-92; and Christensen et al., Cancer Res. 2003 Nov. 1; 63(21):7345-55).

[1] = molecular target: T1, recombinant human c-Met/HGF receptor (Homo sapiens, UniProt P08581); test: In vitro receptor tyrosine kinase assay (DELFIA), c-Met/HGF receptor; format: biochemical; details: read-out: CMET IC50
T1 construct: His tag (pBlueBacHis2A vector); made in house; host or cells: Hi-5 cells (Trichoplusia ni), baculovirus
T1 sequence (P08581 1078-1337): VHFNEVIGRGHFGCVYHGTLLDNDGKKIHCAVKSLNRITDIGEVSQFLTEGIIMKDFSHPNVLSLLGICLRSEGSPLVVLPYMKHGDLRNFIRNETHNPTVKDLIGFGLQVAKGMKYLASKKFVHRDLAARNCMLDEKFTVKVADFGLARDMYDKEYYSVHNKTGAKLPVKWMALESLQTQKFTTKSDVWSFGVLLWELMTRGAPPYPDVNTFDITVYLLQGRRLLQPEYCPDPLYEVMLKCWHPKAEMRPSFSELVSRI
Description: Cell pellets were frozen at −80° C. until purification was performed.
(§2) The coated plates were washed and stored at 4° C. […] After incubation, the kinase reactions were quenched with EDTA and the plates were washed.

VEGF receptor KDR = molecular target: T2, VEGF receptor KDR (Homo sapiens, UniProt P35968); test: In vitro receptor tyrosine kinase assay (DELFIA), VEGF receptor KDR; format: biochemical; details: read-out: VEGFR IC50
T2 construct: made in house; host or cells: Sf9 cells (Spodoptera frugiperda), baculovirus
T2 sequence (P35968 806-1356): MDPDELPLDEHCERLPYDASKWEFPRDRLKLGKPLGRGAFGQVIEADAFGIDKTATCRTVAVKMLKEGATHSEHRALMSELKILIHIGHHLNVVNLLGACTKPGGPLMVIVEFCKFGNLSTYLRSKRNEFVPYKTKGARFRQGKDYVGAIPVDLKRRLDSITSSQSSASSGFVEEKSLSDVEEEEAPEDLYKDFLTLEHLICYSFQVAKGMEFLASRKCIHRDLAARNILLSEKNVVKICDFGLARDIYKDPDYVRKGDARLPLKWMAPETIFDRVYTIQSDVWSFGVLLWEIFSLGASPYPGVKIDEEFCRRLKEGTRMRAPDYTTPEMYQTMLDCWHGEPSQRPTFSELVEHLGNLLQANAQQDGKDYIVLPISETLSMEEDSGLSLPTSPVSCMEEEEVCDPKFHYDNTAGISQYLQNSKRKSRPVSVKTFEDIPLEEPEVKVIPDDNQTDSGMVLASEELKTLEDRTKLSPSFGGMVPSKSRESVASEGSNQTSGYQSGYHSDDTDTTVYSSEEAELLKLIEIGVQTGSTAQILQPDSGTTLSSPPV
Description: In the case of VEGF receptor KDR a 1.6-kb cDNA corresponding to the catalytic domain of VEGFR2 or KDR (Genbank accession number AF035121 amino acid 806 to 1356) was cloned into the Pst I site of the pDEST20 Gateway vector (Invitrogen) for the production of a GST-tagged version of that enzyme.
The GST-VEGFR2806-1356 protein was expressed in […] (Spodoptera frugiperda) upon infection with recombinant baculovirus construct. […] Cell pellets were frozen at −80° C. until purification was performed.
The supernatant (cell extract) was used as starting material for purification of GST-VEGFR2806-1356.
The supernatant was loaded onto a GST-agarose column (Sigma) equilibrated with PBS pH 7.3. Following a four column volume (CV) wash with PBS pH 7.3+1% Triton X-100 and 4 CV wash with buffer B (50 mM Tris pH 8.0, 20% glycerol and 100 mM NaCl), bound proteins were step eluted with 5 CV of buffer B supplemented with 5 mM DTT and 15 mM glutathion. GST-VEGFR2806-1356 enriched fractions from this chromatography step were pooled based on U.V. trace i.e. fractions with high O.D.280. Final GST-VEGFR2806-1356 protein preparations concentrations were about 0.7 mg/ml with purity approximating 70%.
as §2

A549 = A549 wound healing inhibition (HGF dependent migration); format: cell-based; details: Homo sapiens, A549 cells, read-out: A549 WOUND HEALING INHIB IC50
From the text: as §1

Structure (SMILES) | pIC50 (DU145) | pIC50 [1] | pIC50 (VEGF receptor KDR) | pIC50 (A549)
Cn1ccnc1-c1cc2nccc(Oc3ccc(NC(=O)CC(=O)NC4CCNCC4)cc3F)c2s1 | < 5.00 | < 6.30 | < 6.30 | < 5.00
CCn1cnc(-c2cc3nccc(Oc4ccc(NC(=O)C5(C(=O)Nc6ccccc6F)CC5)cc4F)c3s2)c1 | > 6.00 | > 7.30 | > 7.30 | > 6.00
CN(C)CCn1cnc(-c2cc3nccc(Oc4ccc(NC(=O)CC(=O)N(C)c5ccccc5)cc4F)c3s2)c1 | > 6.00 | > 7.30 | > 7.30 | > 6.00
CN(C)CCn1cnc(-c2cc3nccc(Oc4ccc(NC(=O)C5(C(=O)Nc6ccccc6)CC5)cc4F)c3s2)c1 | > 6.00 | > 7.30 | > 7.30 | > 6.00
CN(C)CCn1cnc(-c2cc3nccc(Oc4ccc(NC(=O)C5(C(=O)Nc6ccccc6F)CC5)cc4F)c3s2)c1 | > 6.00 | > 7.30 | > 7.30 | > 6.00
CCn1cc(-c2cc3nccc(Oc4ccc(NC(=O)CC(=O)Nc5ccccc5OC)cc4F)c3s2)nc1CN(C)C | > 6.00 | > 7.30 | > 7.30 | > 6.00
COc1ccccc1NC(=O)CC(=O)Nc1ccc(Oc2ccnc3cc(-c4ccc(OCCCN(C)C)c(OCCCN(C)C)c4)sc23)c(F)c1 | < 5.00 | > 7.30 | 6.60 to 7.30 | < 5.00
COc1ccccc1NC(=O)CC(=O)Nc1ccc(Oc2ccnc3cc(-c4cccc(OCCCNC(=N)N)c4)sc23)c(F)c1 | < 5.00 | 6.60 to 7.30 | < 6.30 | 5.30 to 6.00
CCn1cnc(-c2cc3nccc(Oc4ccc(NC(=O)CC(=O)N(C)c5ccccc5)cc4F)c3s2)c1 | > 6.00 | > 7.30 | > 7.30 | > 6.00
O=C(Nc1ccc(Oc2ccnc3cc(-c4cn(CCCN5CCCC5)cn4)sc23)c(F)c1)C1(C(=O)Nc2ccccc2F)CC1 | > 6.00 | > 7.30 | > 7.30 | > 6.00
CN1CCN(Cc2ccc(-c3cc4nccc(Oc5ccc(NC(=O)CC(=O)Nc6ccccc6)cc5F)c4s3)cc2)CC1 | > 6.00 | > 7.30 | > 7.30 | 5.30 to 6.00
CN1CCN(CCN(C)Cc2ccc(-c3cc4nccc(Oc5ccc(NC(=O)CC(=O)N(C)c6ccccc6)cc5F)c4s3)cc2)CC1 | > 6.00 | > 7.30 | > 7.30 | 5.30 to 6.00
O=C(Nc1ccc(Oc2ccnc3cc(-c4cn(CCN5CCCC5)cn4)sc23)c(F)c1)C1(C(=O)Nc2ccccc2F)CC1 | > 6.00 | > 7.30 | > 7.30 | 5.30 to 6.00
COc1ccccc1NC(=O)C1(C(=O)Nc2ccc(Oc3ccnc4cc(-c5cn(CCN6CCCC6)cn5)sc34)c(F)c2)CC1 | > 6.00 | > 7.30 | > 7.30 | > 6.00
O=C(O)Cn1cnc(-c2cc3nccc(Oc4ccc(NC(=O)CC(=O)Nc5ccccc5)cc4F)c3s2)c1 | < 5.00 | > 7.30 | > 7.30 | < 5.00
CN1CC=C(c2cc3nccc(Oc4ccc(NC(=O)CC(=O)N(C)c5ccccc5)cc4F)c3s2)CC1 | 5.30 to 6.00 | > 7.30 | 6.60 to 7.30 | 5.30 to 6.00
CC(C)n1cnc(-c2cc3nccc(Oc4ccc(NC(=O)C5CCN(c6ccccc6)C5=O)cc4F)c3s2)c1 (centres unmarked) | > 6.00 | > 7.30 | > 7.30 | > 6.00
O=C(Nc1ccc(Oc2ccnc3cc(-c4cn(CCCN5CCCC5)cn4)sc23)c(F)c1)C1CCN(c2ccccc2)C1=O (centres unmarked) | > 6.00 | > 7.30 | > 7.30 | > 6.00
Cn1cnc(-c2cc3nccc(Oc4ccc(NC(=O)C5CCN(c6ccccc6)C5=O)cc4F)c3s2)c1 (centres unmarked) | > 6.00 | > 7.30 | > 7.30 | > 6.00
CN(C)CCn1cnc(-c2cc3nccc(Oc4ccc(NC(=O)CC(=O)Nc5ccccc5F)cc4F)c3s2)c1 | > 6.00 | > 7.30 | > 7.30 | > 6.00
CCn1cnc(-c2cc3nccc(Oc4ccc(NC(=O)N5CCN(c6ccccc6)C5=O)cc4F)c3s2)c1 | > 6.00 | > 7.30 | > 7.30 | > 6.00

More lines, now with the values ahead:

pIC50 (DU145) | pIC50 [1] | pIC50 (VEGF receptor KDR) | pIC50 (A549) | Structure (SMILES)
5.30 to 6.00 | 6.60 to 7.30 | 6.30 to 6.60 | 5.30 to 6.00 | COc1ccccc1NC(=O)CC(=O)Nc1ccc(Oc2ccnc3cc(-c4ccc(OCCCN(C)C)nc4)sc23)c(F)c1
< 5.00 | < 6.30 | < 6.30 | < 5.00 | COc1ccccc1NC(=O)CC(=O)Nc1ccc(Oc2ccnc3cc(-c4cnc(N5CCOCC5)nc4)sc23)c(F)c1
< 5.00 | 6.30 to 6.60 | < 6.30 | < 5.00 | CN(C(=O)CC(=O)Nc1ccc(Oc2ccnc3cc(C(=O)N(C)N(C)C)sc23)c(F)c1)c1ccccc1
> 6.00 | > 7.30 | > 7.30 | > 6.00 | CN(C)CCCn1cnc(-c2cc3nccc(Oc4ccc(NC(=O)CC(=O)N(C)c5ccccc5)cc4F)c3s2)c1
5.30 to 6.00 | 6.60 to 7.30 | 6.60 to 7.30 | 5.30 to 6.00 | CN(C)CC/C=C\c1cc2nccc(Oc3ccc(NC(=O)CC(=O)N(C)c4ccccc4)cc3F)c2s1
5.30 to 6.00 | 6.30 to 6.60 | 6.60 to 7.30 | 5.30 to 6.00 | Cn1ccnc1-c1cc2nccc(Oc3ccc(NC(=O)CS(=O)(=O)c4ccc(F)cc4)cc3F)c2s1
> 6.00 | > 7.30 | > 7.30 | 5.30 to 6.00 | CN(C(=O)CC(=O)Nc1ccc(Oc2ccnc3cc(-c4cn(CCCN5CCCC5)cn4)sc23)c(F)c1)c1ccccc1
5.30 to 6.00 | 6.60 to 7.30 | > 7.30 | > 6.00 | CN(C(=O)CC(=O)Nc1ccc(Oc2ccnc3cc(-c4cn(C)cn4)sc23)c(F)c1)c1ccccc1F
> 6.00 | 6.60 to 7.30 | > 7.30 | 5.30 to 6.00 | CN1CCN(Cc2ccc(-c3cc4nccc(Oc5ccc(NC(=O)CC(=O)N(C)c6ccccc6)cc5F)c4s3)cc2)CC1
5.30 to 6.00 | > 7.30 | > 7.30 | 5.30 to 6.00 | CC(C)n1cnc(-c2cc3nccc(Oc4ccc(NC(=O)CC(=O)Nc5nccs5)cc4F)c3s2)c1
< 5.00 | 6.30 to 6.60 | < 6.30 | 5.30 to 6.00 | CC(C)n1cnc(-c2cc3nccc(Oc4ccc(NC(=O)C5CC(=O)N(c6ccccc6)C5)cc4F)c3s2)c1 (centres unmarked)
> 6.00 | 6.60 to 7.30 | > 7.30 | 5.30 to 6.00 | CCn1cnc(-c2cc3nccc(Oc4ccc(NC(=O)CC(=O)Nc5ccccc5C(F)(F)F)cc4F)c3s2)c1
> 6.00 | > 7.30 | > 7.30 | > 6.00 | CN(C)CCn1cnc(-c2cc3nccc(Oc4ccc(NC(=O)CC(=O)Nc5ccccc5)cc4F)c3s2)c1
5.30 to 6.00 | 6.30 to 6.60 | < 6.30 | 5.30 to 6.00 | CN(c1ccc(NC(=O)C2(C(=O)Nc3ccccc3)CC2)cc1F)c1ccnc2ccsc12
5.00 to 5.30 | > 7.30 | > 7.30 | 5.30 to 6.00 | O=C(Cn1cnc(-c2cc3nccc(Oc4ccc(NC(=O)CC(=O)Nc5ccccc5)cc4F)c3s2)c1)NCCCN1CCCC1
> 6.00 | 6.60 to 7.30 | > 7.30 | > 6.00 | CCN(CC)CCn1cnc(-c2cc3nccc(Oc4ccc(NC(=O)CC(=O)N(C)c5ccccc5)cc4F)c3s2)c1
> 6.00 | 6.60 to 7.30 | > 7.30 | > 6.00 | CN1CCN(CCN(C)Cc2cccc(-c3cc4nccc(Oc5ccc(NC(=O)CC(=O)N(C)c6ccccc6)cc5F)c4s3)c2)CC1
> 6.00 | > 7.30 | > 7.30 | > 6.00 | Cn1cnc(-c2cc3nccc(Oc4ccc(NC(=O)C5CCN(c6ccc(F)cc6)C5=O)cc4F)c3s2)c1 (centres unmarked)
5.30 to 6.00 | 6.60 to 7.30 | > 7.30 | 5.30 to 6.00 | CN1CCN(CCN(C)Cc2ccc(-c3cc4nccc(Oc5ccc(NC(=O)CC(=O)Nc6cccc(F)c6)cc5F)c4s3)cc2)CC1
> 6.00 | > 7.30 | > 7.30 | > 6.00 | CN1CCN(CCN(C)Cc2ccc(-c3cc4nccc(Oc5ccc(NC(=O)CC(=O)Nc6ccc(F)cc6)cc5F)c4s3)cc2)CC1
